Source: PMC5392334, “Discovery and characterization of a novel irreversible EGFR mutants selective and potent kinase inhibitor CHMFL-EGFR-26 with a distinct binding mode” (Oncotarget, 2017)

Experiments:
Assay in all cases: KinomeScan
Format in all cases: binding
Conditions in all cases: read-out: % control
[1] = target: T1, ABL1(F317I)-phosphorylated (Homo sapiens, UniProt P00519, F317I)
T1 construct: purchased DiscoveRx KINOMEscan

[2] = target: T2, ABL1(H396P)-phosphorylated (Homo sapiens, UniProt P00519, H396P)
T2 construct: purchased DiscoveRx KINOMEscan

[3] = target: T3, ACVR1 (Homo sapiens, UniProt Q04771)
T3 construct: purchased DiscoveRx KINOMEscan

[4] = target: T4, ADCK3 (Homo sapiens, UniProt Q8NI60)
T4 construct: purchased DiscoveRx KINOMEscan

[5] = target: T5, AURKC (Homo sapiens, UniProt Q9UQB9)
T5 construct: purchased DiscoveRx KINOMEscan

[6] = target: T6, BLK (Homo sapiens, UniProt P51451)
T6 construct: purchased Invitrogen (SelectScreen service)

[7] = target: T7, CAMK1 (Homo sapiens, UniProt Q14012)
T7 construct: purchased DiscoveRx KINOMEscan

[8] = target: T8, CAMK1G (Homo sapiens, UniProt Q96NX5)
T8 construct: purchased DiscoveRx KINOMEscan

[9] = target: T9, CDC2L1 (Homo sapiens, UniProt P21127)
T9 construct: purchased DiscoveRx KINOMEscan

[10] = target: T10, CDC2L5 (Homo sapiens, UniProt Q14004)
T10 construct: purchased DiscoveRx KINOMEscan

[11] = target: T11, CSNK1A1 (Homo sapiens, UniProt P48729)
T11 construct: purchased DiscoveRx KINOMEscan

[12] = target: T12, CSNK1G1 (Homo sapiens, UniProt Q9HCP0)
T12 construct: purchased DiscoveRx KINOMEscan

[13] = target: T13, CSNK2A1 (Homo sapiens, UniProt P68400)
T13 construct: purchased DiscoveRx KINOMEscan

[14] = target: T14, CSNK2A2 (Homo sapiens, UniProt P19784)
T14 construct: purchased DiscoveRx KINOMEscan

[15] = target: T15, EGFR(S752-I759del) (Homo sapiens, UniProt P00533, DEL752-759)
T15 construct: purchased DiscoveRx KINOMEscan

[16] = target: T16, EPHB2 (Homo sapiens, UniProt P29323)
T16 construct: purchased DiscoveRx KINOMEscan

[17] = target: T17, ERK5 (Homo sapiens, UniProt Q13164)
T17 construct: purchased DiscoveRx KINOMEscan

[18] = target: T18, FLT3 (Homo sapiens, UniProt P36888)
T18 construct: purchased DiscoveRx KINOMEscan

[19] = target: T19, FLT3-autoinhibited (Homo sapiens, UniProt P36888)
T19 construct: purchased DiscoveRx KINOMEscan

[20] = target: T20, GRK7 (Homo sapiens, UniProt Q8WTQ7)
T20 construct: purchased DiscoveRx KINOMEscan

[21] = target: T21, HIPK1 (Homo sapiens, UniProt Q86Z02)
T21 construct: purchased DiscoveRx KINOMEscan

[22] = target: T22, HPK1 (Homo sapiens, UniProt Q92918)
T22 construct: purchased DiscoveRx KINOMEscan

[23] = target: T23, HUNK (Homo sapiens, UniProt P57058)
T23 construct: purchased DiscoveRx KINOMEscan

[24] = target: T24, IKK-beta (Homo sapiens, UniProt O14920)
T24 construct: purchased DiscoveRx KINOMEscan

[25] = target: T25, KIT(V559D,T670I) (Homo sapiens, UniProt P10721, T670I/V559D)
T25 construct: purchased DiscoveRx KINOMEscan

[26] = target: T26, LYN (Homo sapiens, UniProt P07948)
T26 construct: purchased DiscoveRx KINOMEscan

[27] = target: T27, MARK3 (Homo sapiens, UniProt P27448)
T27 construct: purchased DiscoveRx KINOMEscan

[28] = target: T28, MYLK2 (Homo sapiens, UniProt Q9H1R3)
T28 construct: purchased DiscoveRx KINOMEscan

[29] = target: T29, NEK10 (Homo sapiens, UniProt Q6ZWH5)
T29 construct: purchased DiscoveRx KINOMEscan

[30] = target: T30, NEK5 (Homo sapiens, UniProt Q6P3R8)
T30 construct: purchased DiscoveRx KINOMEscan

[31] = target: T31, PIK3CA(M1043I) (Homo sapiens, UniProt P42336, M1043I)
T31 construct: purchased DiscoveRx KINOMEscan

[32] = target: T32, PIM3 (Homo sapiens, UniProt Q86V86)
T32 construct: purchased DiscoveRx KINOMEscan

[33] = target: T33, PKNB(M.tuberculosis) (Mycobacterium tuberculosis, UniProt P9WI81)
T33 construct: purchased DiscoveRx KINOMEscan

[34] = target: T34, PRKCI (Homo sapiens, UniProt P41743)
T34 construct: purchased DiscoveRx KINOMEscan

[35] = target: T35, RIPK4 (Homo sapiens, UniProt P57078)
T35 construct: purchased DiscoveRx KINOMEscan

[36] = target: RPS6KA4(Kin.Dom.2-C-terminal) (Homo sapiens, UniProt O75676)
[37] = target: T36, SgK110 (Homo sapiens, UniProt P0C264)
T36 construct: purchased DiscoveRx KINOMEscan

[38] = target: T37, SIK2 (Homo sapiens, UniProt Q9H0K1)
T37 construct: purchased DiscoveRx KINOMEscan

[39] = target: T38, STK36 (Homo sapiens, UniProt Q9NRP7)
T38 construct: purchased DiscoveRx KINOMEscan

[40] = target: T39, TAK1 (Homo sapiens, UniProt O43318)
T39 construct: purchased DiscoveRx KINOMEscan

[41] = target: T40, TNNI3K (Homo sapiens, UniProt Q59H18)
T40 construct: purchased DiscoveRx KINOMEscan

[42] = target: T41, YANK2 (Homo sapiens, UniProt Q9NY57)
T41 construct: purchased DiscoveRx KINOMEscan

[43] = target: T42, YSK1 (Homo sapiens, UniProt O00506)
T42 construct: purchased DiscoveRx KINOMEscan

T22 sequence (Q92918 whole entry): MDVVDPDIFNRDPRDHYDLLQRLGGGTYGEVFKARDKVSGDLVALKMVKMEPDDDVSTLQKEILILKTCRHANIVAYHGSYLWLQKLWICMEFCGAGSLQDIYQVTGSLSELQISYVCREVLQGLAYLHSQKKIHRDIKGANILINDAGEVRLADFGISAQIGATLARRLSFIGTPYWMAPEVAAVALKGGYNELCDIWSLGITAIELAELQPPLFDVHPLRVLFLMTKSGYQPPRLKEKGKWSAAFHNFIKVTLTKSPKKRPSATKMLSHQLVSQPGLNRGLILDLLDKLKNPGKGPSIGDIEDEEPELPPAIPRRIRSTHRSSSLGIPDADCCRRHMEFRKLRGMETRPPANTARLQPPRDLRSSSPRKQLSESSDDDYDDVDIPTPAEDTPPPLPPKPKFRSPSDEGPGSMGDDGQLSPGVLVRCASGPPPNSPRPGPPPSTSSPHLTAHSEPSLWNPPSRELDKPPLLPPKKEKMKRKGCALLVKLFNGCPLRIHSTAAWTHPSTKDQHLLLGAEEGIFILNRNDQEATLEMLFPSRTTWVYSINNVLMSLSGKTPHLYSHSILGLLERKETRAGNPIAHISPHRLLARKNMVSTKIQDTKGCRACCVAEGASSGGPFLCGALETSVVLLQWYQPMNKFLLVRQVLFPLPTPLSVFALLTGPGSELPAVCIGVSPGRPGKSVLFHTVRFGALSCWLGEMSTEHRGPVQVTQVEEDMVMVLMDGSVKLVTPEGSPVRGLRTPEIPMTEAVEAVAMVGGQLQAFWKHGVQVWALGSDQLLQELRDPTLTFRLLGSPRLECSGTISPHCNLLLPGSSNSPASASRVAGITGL
T33 sequence (P9WI81 whole entry): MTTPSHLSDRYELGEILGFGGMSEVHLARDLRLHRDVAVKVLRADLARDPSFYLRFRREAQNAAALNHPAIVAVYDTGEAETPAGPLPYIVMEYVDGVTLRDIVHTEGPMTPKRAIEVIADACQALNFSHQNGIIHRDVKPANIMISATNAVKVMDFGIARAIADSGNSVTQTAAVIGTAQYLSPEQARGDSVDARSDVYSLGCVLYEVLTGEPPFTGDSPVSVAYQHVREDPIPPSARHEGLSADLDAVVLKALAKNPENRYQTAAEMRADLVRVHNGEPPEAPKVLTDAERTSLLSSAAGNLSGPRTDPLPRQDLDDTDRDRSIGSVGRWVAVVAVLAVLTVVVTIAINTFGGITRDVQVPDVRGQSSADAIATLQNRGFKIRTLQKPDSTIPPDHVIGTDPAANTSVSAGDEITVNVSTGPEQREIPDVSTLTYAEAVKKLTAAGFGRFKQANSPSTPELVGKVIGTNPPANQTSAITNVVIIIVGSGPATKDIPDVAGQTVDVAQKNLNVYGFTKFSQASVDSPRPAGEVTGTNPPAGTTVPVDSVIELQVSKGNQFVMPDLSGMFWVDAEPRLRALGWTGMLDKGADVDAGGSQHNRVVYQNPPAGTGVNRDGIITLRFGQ
T9 sequence (P21127 whole entry): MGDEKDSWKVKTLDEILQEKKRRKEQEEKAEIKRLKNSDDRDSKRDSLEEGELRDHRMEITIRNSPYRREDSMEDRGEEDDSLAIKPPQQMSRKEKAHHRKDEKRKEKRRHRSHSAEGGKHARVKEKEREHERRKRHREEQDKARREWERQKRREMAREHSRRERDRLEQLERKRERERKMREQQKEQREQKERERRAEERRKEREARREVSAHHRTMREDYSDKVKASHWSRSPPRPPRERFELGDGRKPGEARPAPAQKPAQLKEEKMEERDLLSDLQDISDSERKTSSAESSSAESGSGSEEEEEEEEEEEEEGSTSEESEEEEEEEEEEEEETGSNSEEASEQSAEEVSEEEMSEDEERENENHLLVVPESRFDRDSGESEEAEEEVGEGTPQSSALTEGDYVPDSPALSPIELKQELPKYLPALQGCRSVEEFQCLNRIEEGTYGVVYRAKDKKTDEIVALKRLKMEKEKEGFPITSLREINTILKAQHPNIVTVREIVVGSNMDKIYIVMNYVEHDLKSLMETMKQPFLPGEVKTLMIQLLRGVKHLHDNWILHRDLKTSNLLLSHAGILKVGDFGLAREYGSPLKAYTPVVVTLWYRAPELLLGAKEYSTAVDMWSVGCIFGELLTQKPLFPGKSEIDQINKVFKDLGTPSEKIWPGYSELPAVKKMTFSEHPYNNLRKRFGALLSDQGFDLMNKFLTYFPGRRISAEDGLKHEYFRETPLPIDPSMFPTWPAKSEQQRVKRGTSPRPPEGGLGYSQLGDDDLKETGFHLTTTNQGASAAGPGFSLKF
T25 sequence (P10721 26-976 V559D/T670I): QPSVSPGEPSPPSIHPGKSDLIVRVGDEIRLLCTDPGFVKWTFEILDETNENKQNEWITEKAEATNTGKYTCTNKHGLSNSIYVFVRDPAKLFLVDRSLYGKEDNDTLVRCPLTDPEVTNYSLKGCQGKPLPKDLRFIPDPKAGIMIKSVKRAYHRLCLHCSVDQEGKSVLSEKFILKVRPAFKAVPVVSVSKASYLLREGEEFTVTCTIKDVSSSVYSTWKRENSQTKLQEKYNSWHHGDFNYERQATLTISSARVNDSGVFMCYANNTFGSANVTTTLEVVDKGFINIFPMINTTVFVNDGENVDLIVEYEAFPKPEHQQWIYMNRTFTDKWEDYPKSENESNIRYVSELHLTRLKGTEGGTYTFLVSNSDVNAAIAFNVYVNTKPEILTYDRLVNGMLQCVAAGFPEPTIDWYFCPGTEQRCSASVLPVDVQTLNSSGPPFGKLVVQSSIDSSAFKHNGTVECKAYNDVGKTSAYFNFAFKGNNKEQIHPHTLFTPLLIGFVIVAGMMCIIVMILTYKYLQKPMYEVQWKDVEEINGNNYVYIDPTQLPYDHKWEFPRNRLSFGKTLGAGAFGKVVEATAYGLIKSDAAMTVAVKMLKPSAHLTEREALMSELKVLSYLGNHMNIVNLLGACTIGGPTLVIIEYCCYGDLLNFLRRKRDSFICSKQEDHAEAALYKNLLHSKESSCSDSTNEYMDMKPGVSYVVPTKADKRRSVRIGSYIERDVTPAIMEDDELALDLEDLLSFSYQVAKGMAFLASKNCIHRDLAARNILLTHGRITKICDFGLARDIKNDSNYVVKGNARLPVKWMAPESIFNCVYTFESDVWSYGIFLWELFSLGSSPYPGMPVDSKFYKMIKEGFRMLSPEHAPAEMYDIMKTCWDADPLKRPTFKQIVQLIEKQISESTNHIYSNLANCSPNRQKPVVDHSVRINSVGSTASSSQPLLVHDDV
T11 sequence (P48729 whole entry): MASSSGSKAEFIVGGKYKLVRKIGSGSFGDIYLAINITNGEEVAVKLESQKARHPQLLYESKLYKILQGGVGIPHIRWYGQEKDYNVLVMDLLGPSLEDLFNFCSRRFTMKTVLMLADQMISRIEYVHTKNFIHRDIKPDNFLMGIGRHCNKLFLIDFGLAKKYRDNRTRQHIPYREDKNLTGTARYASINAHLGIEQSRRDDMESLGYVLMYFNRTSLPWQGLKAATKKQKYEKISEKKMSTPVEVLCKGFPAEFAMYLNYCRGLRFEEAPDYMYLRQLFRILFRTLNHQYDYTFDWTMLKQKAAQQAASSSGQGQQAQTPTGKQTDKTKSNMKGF
T36 sequence (P0C264 whole entry): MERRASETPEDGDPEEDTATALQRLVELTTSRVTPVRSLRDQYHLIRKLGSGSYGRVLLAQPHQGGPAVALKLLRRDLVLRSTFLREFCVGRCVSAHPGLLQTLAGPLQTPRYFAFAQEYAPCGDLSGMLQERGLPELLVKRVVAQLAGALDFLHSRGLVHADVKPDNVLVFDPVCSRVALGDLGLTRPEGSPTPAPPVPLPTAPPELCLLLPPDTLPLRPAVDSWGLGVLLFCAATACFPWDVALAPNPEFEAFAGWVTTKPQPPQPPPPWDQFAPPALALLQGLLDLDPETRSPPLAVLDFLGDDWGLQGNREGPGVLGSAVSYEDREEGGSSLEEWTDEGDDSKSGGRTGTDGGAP
T7 sequence (Q14012 whole entry): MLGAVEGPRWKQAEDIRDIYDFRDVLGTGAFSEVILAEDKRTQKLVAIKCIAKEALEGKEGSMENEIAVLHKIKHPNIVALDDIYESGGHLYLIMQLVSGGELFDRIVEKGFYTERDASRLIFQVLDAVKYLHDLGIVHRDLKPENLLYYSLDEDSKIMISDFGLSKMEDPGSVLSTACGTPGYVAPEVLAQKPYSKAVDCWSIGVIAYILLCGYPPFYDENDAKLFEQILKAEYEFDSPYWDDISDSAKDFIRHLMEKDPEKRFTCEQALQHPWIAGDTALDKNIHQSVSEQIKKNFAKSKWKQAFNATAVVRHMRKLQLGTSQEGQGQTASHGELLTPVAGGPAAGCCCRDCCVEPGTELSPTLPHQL
T14 sequence (P19784 whole entry): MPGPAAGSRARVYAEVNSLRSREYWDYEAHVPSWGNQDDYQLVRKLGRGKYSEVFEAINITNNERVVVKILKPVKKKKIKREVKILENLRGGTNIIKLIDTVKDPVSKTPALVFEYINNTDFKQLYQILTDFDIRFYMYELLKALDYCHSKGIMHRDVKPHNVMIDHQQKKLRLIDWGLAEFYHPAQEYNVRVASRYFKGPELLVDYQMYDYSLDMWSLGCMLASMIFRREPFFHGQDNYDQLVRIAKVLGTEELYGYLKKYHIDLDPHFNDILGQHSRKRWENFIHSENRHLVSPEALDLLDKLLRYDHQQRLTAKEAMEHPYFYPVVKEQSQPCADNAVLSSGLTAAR

Structure (SMILES): C=CC(=O)N1CCC[C@@H](n2nc(-c3ccc(OCc4cccc(C)n4)c(Cl)c3)c3c(N)ncnc32)C1 [CHMFL-EGFR-26]
- remaining binding at 1 µM [1]: 98%
- remaining binding at 1 µM [2]: 100%
- remaining binding at 1 µM [3]: 96%
- remaining binding at 1 µM [4]: 100%
- remaining binding at 1 µM [5]: 87%
- remaining binding at 1 µM [6]: 0.35%
- remaining binding at 1 µM [7]: 100%
- remaining binding at 1 µM [8]: 97%
- remaining binding at 1 µM [9]: 86%
- remaining binding at 1 µM [10]: 100%
- remaining binding at 1 µM [11]: 100%
- remaining binding at 1 µM [12]: 87%
- remaining binding at 1 µM [13]: 100%
- remaining binding at 1 µM [14]: 91%
- remaining binding at 1 µM [15]: 12%
- remaining binding at 1 µM [16]: 100%
- remaining binding at 1 µM [17]: 100%
- remaining binding at 1 µM [18]: 95%
- remaining binding at 1 µM [19]: 99%
- remaining binding at 1 µM [20]: 100%
- remaining binding at 1 µM [21]: 98%
- remaining binding at 1 µM [22]: 100%
- remaining binding at 1 µM [23]: 72%
- remaining binding at 1 µM [24]: 98%
- remaining binding at 1 µM [25]: 100%
- remaining binding at 1 µM [26]: 94%
- remaining binding at 1 µM [27]: 100%
- remaining binding at 1 µM [28]: 100%
- remaining binding at 1 µM [29]: 99%
- remaining binding at 1 µM [30]: 93%
- remaining binding at 1 µM [31]: 100%
- remaining binding at 1 µM [32]: 100%
- remaining binding at 1 µM [33]: 100%
- remaining binding at 1 µM [34]: 100%
- remaining binding at 1 µM [35]: 96%
- remaining binding at 1 µM [36]: 100%
- remaining binding at 1 µM [37]: 100%
- remaining binding at 1 µM [38]: 93%
- remaining binding at 1 µM [39]: 92%
- remaining binding at 1 µM [40]: 100%
- remaining binding at 1 µM [41]: 89%
- remaining binding at 1 µM [42]: 5.8%
- remaining binding at 1 µM [43]: 20%
